Test results taken from US4409210A, “Antibiotic compound” (priority 1982, dated 1983).

Columns and labels:
Type in all cases: cell-based
[1] = test system: Veillonella parvula A20010; experiment: MIC, serial two-fold dilution method (anaerobic); conditions: Veillonella parvula A20010; GAM agar medium; inoculum 10^7-10^8
[2] = test system: Bacteroides fragilis A20926; experiment: MIC, serial two-fold dilution method (anaerobic); conditions: Bacteroides fragilis A20926; GAM agar medium; inoculum 10^7-10^8
[3] = test system: Staphylococcus aureus BX-1633; experiment: MIC, serial two-fold dilution method (aerobic); conditions: Staphylococcus aureus BX-1633; Mueller-Hinton agar; inoculum 10^4
Proteus vulgaris A9436 = experiment: MIC, serial two-fold dilution method (aerobic); conditions: Proteus vulgaris A9436; Mueller-Hinton agar; inoculum 10^4
[4] = test system: Staphylococcus aureus A22421; experiment: MIC, serial two-fold dilution method (aerobic); conditions: Staphylococcus aureus A22421; Mueller-Hinton agar; inoculum 10^4
[5] = test system: Klebsiella pneumoniae D-11; experiment: MIC, serial two-fold dilution method (aerobic); conditions: Klebsiella pneumoniae D-11; Mueller-Hinton agar; inoculum 10^4
[6] = test system: Clostridium perfringens A22787; experiment: microbe, parasite or virus in culture; conditions: Clostridium perfringens A22787; GAM agar medium; inoculum 10^7-10^8
[7] = test system: Staphylococcus aureus 209P; experiment: MIC, serial two-fold dilution method (aerobic); conditions: Staphylococcus aureus 209P; Mueller-Hinton agar; inoculum 10^4
[8] = test system: Bacteroides fragilis A21900; experiment: MIC, serial two-fold dilution method (anaerobic); conditions: Bacteroides fragilis A21900; GAM agar medium; inoculum 10^7-10^8
[9] = test system: Staphylococcus aureus Smith; experiment: MIC, serial two-fold dilution method (aerobic); conditions: Staphylococcus aureus Smith; Mueller-Hinton agar; inoculum 10^4
[10] = test system: Clostridium ramosum A21970; experiment: MIC, serial two-fold dilution method (anaerobic); conditions: Clostridium ramosum A21970; GAM agar medium; inoculum 10^7-10^8
[11] = test system: Clostridium perfringens A9635; experiment: microbe, parasite or virus in culture; conditions: Clostridium perfringens A9635; GAM agar medium; inoculum 10^7-10^8
[12] = test system: Bacteroides fragilis A20928-1; experiment: MIC, serial two-fold dilution method (anaerobic); conditions: Bacteroides fragilis A20928-1; GAM agar medium; inoculum 10^7-10^8
[13] = test system: Peptostreptococcus anaerobius A21905; experiment: MIC, serial two-fold dilution method (anaerobic); conditions: Peptostreptococcus anaerobius A21905; GAM agar medium; inoculum 10^7-10^8
[14] = test system: Bacteroides fragilis A22533; experiment: MIC, serial two-fold dilution method (anaerobic); conditions: Bacteroides fragilis A22533; GAM agar medium; inoculum 10^7-10^8
[15] = test system: Propionibacterium acnes A22650; experiment: MIC, serial two-fold dilution method (anaerobic); conditions: Propionibacterium acnes A22650; GAM agar medium; inoculum 10^7-10^8
[16] = test system: Peptococcus magnas A21676; experiment: MIC, serial two-fold dilution method (anaerobic); conditions: Peptococcus magnas A21676; GAM agar medium; inoculum 10^7-10^8
[17] = test system: Bacteroides fragilis CUH-24; experiment: MIC, serial two-fold dilution method (anaerobic); conditions: Bacteroides fragilis CUH-24; GAM agar medium; inoculum 10^7-10^8
[18] = test system: Fusobacterium necrophorum A20013; experiment: MIC, serial two-fold dilution method (anaerobic); conditions: Fusobacterium necrophorum A20013; GAM agar medium; inoculum 10^7-10^8
[19] = test system: Staphylococcus aureus A20239; experiment: MIC, serial two-fold dilution method (aerobic); conditions: Staphylococcus aureus A20239; Mueller-Hinton agar; inoculum 10^4
[20] = test system: Staphylococcus aureus A20610; experiment: MIC, serial two-fold dilution method (aerobic); conditions: Staphylococcus aureus A20610; Mueller-Hinton agar; inoculum 10^4
[21] = test system: Staphylococcus aureus #193; experiment: MIC, serial two-fold dilution method (aerobic); conditions: Staphylococcus aureus #193; Mueller-Hinton agar; inoculum 10^4
[22] = test system: Bacteroides fragilis CUH-9; experiment: MIC, serial two-fold dilution method (anaerobic); conditions: Bacteroides fragilis CUH-9; GAM agar medium; inoculum 10^7-10^8
[23] = test system: Pseudomonas aeruginosa D-113; experiment: MIC, serial two-fold dilution method (aerobic); conditions: Pseudomonas aeruginosa D-113; Mueller-Hinton agar; inoculum 10^4
[24] = test system: Fusobacterium varium ATCC 8501; experiment: MIC, serial two-fold dilution method (anaerobic); conditions: Fusobacterium varium ATCC 8501; GAM agar medium; inoculum 10^7-10^8
[25] = test system: Bacillus subtilis ATCC 6633; experiment: MIC, serial two-fold dilution method (aerobic); conditions: Bacillus subtilis ATCC 6633; Mueller-Hinton agar; inoculum 10^4
[26] = test system: Bacteroides fragilis A22695; experiment: MIC, serial two-fold dilution method (anaerobic); conditions: Bacteroides fragilis A22695; GAM agar medium; inoculum 10^7-10^8
Sarcina lutea PCI-1001 = experiment: MIC, serial two-fold dilution method (aerobic); conditions: Sarcina lutea PCI-1001; Mueller-Hinton agar; inoculum 10^4
Proteus mirabilis A9554 = experiment: MIC, serial two-fold dilution method (aerobic); conditions: Proteus mirabilis A9554; Mueller-Hinton agar; inoculum 10^4

Amphomycin
minimum inhibitory concentration (MIC) [1]: 6.3 µg/mL | minimum inhibitory concentration (MIC) [2]: 50 µg/mL | minimum inhibitory concentration (MIC) [3]: 3.1 µg/mL | minimum inhibitory concentration (MIC) (Proteus vulgaris A9436): > 100 µg/mL | minimum inhibitory concentration (MIC) [4]: 3.1 µg/mL | minimum inhibitory concentration (MIC) [5]: > 100 µg/mL | minimum inhibitory concentration (MIC) [6]: 12.5 µg/mL | minimum inhibitory concentration (MIC) [7]: 3.1 µg/mL | minimum inhibitory concentration (MIC) [8]: 25 µg/mL | minimum inhibitory concentration (MIC) [9]: 3.1 µg/mL | minimum inhibitory concentration (MIC) [10]: 25 µg/mL | minimum inhibitory concentration (MIC) [11]: 6.3 µg/mL | minimum inhibitory concentration (MIC) [12]: 25 µg/mL | minimum inhibitory concentration (MIC) [13]: 3.1 µg/mL | minimum inhibitory concentration (MIC) [14]: > 100 µg/mL | minimum inhibitory concentration (MIC) [15]: 6.3 µg/mL | minimum inhibitory concentration (MIC) [16]: 6.3 µg/mL | minimum inhibitory concentration (MIC) [17]: > 100 µg/mL | minimum inhibitory concentration (MIC) [18]: > 100 µg/mL | minimum inhibitory concentration (MIC) [19]: 6.3 µg/mL | minimum inhibitory concentration (MIC) [20]: 3.1 µg/mL | minimum inhibitory concentration (MIC) [21]: 3.1 µg/mL | minimum inhibitory concentration (MIC) [22]: > 100 µg/mL | minimum inhibitory concentration (MIC) [23]: > 100 µg/mL | minimum inhibitory concentration (MIC) [24]: 25 µg/mL | minimum inhibitory concentration (MIC) [25]: 1.6 µg/mL | minimum inhibitory concentration (MIC) [26]: > 100 µg/mL | minimum inhibitory concentration (MIC) (Sarcina lutea PCI-1001): 0.8 µg/mL | minimum inhibitory concentration (MIC) (Proteus mirabilis A9554): > 100 µg/mL
